Results on 14 compounds are retold here after ChEMBL document CHEMBL1136415, “3-Acylamino-azetidin-2-one as a novel class of cysteine proteases inhibitors” (Bioorg Med Chem Lett, 2003).

Molecules are shown by their SMILES.

For one test, the target named is T1, Cathepsin K (Homo sapiens, UniProt P43235).
T1 sequence (P43235 whole entry): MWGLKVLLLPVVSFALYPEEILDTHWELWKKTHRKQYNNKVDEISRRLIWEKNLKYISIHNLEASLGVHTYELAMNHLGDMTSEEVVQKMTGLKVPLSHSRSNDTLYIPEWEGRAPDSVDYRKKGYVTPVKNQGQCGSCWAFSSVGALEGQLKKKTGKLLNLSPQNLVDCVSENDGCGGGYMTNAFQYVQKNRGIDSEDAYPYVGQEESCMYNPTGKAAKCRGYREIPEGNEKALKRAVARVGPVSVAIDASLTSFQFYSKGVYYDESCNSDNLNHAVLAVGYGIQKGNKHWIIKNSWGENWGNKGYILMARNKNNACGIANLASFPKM
Briefly: Inhibition of recombinant human Cathepsin K.

The target in another test is Procathepsin L (Homo sapiens, UniProt P07711). Briefly: Inhibition of recombinant human Cathepsin L.
Procathepsin L, sequence (P07711 whole entry): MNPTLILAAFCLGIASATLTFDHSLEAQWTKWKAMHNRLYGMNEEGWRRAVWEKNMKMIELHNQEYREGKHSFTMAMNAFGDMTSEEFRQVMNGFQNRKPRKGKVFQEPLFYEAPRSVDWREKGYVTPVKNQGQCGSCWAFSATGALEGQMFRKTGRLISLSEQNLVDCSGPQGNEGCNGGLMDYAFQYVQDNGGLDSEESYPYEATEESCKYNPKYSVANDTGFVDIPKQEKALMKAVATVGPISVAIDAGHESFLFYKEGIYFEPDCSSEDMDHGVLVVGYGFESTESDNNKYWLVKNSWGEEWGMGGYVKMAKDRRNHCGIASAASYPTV
Another test addresses Cathepsin B (Rattus norvegicus, UniProt P00787). As to the kind of experiment: Inhibition of recombinant rat Cathepsin B.
In the next test the target is T2, Neutrophil elastase (Homo sapiens, UniProt P08246).
T2 sequence (P08246 whole entry): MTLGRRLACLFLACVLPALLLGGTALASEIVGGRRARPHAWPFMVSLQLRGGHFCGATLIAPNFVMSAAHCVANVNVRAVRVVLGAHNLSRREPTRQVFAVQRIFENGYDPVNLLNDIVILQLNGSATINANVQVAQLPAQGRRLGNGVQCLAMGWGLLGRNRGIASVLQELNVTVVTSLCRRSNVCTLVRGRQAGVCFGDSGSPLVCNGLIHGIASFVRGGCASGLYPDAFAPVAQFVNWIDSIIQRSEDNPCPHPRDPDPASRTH
As to the kind of experiment: Inhibition of human leukocyte elastase(HLE).

Another test addresses Cathepsin S (Homo sapiens, UniProt P25774). Briefly: Inhibition of recombinant human cathepsin S.

Cathepsin S, sequence (P25774 whole entry): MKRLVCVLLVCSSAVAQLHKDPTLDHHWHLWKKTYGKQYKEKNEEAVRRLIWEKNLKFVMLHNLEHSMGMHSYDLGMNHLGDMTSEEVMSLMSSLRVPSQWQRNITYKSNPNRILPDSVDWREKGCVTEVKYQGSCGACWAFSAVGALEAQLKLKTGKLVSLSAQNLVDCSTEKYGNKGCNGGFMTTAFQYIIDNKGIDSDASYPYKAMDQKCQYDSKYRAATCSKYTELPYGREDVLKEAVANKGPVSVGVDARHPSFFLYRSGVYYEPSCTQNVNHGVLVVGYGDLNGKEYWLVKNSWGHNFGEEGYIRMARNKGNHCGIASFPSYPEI
Cathepsin B, sequence (P00787 whole entry): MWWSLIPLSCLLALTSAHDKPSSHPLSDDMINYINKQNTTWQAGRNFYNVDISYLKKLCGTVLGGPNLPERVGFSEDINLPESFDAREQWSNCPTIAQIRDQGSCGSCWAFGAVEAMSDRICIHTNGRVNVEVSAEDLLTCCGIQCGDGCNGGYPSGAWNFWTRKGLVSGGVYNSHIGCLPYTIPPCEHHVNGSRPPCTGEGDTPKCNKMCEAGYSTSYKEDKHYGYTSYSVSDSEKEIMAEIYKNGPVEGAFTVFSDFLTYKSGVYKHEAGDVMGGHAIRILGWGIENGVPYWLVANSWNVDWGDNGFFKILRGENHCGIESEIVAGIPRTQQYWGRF

Turning to `O=C(N[C@@H](Cc1ccccc1)C(=O)N[C@@H]1C(=O)N[C@H]1OC(=O)c1ccccc1)OCc1ccccc1`, the IC50 (as a rule, the midpoint of a concentration-inhibition curve) was 100 nM on Cathepsin K; 166 nM at Procathepsin L; 27.5 µM at Cathepsin B; over 50 µM on Neutrophil elastase; 20 nM at Cathepsin S.
The corresponding values for `O=C(CCc1ccccc1)O[C@@H]1NC(=O)[C@H]1NC(=O)[C@H](Cc1ccccc1)NC(=O)OCc1ccccc1` are 38 nM, 47 nM, 9.71 µM, over 50 µM and 41 nM.
The corresponding values for `O=C(N[C@@H](Cc1ccccc1)C(=O)N[C@@H]1CNC1=O)OCc1ccccc1` are over 5000 nM, 37400 nM, 13.6 µM, over 50 µM and over 5000 nM.
Consider `O=C(N[C@@H](Cc1ccccc1)C(=O)N[C@H]1CNC1=O)OCc1ccccc1`, for which the IC50 at Cathepsin B is 2.7 µM; against Neutrophil elastase, over 50 µM.
Take `CC(C)(C)O[C@@H]1NC(=O)[C@H]1NC(=O)[C@H](Cc1ccccc1)NC(=O)OCc1ccccc1`: the IC50 at Cathepsin K is 2500 nM; at Procathepsin L it was 780 nM; on Cathepsin B it was 11.4 µM; against Neutrophil elastase it was over 50 µM; at Cathepsin S it was over 2500 nM.
As to `CC(C)CO[C@@H]1NC(=O)[C@H]1NC(=O)[C@H](Cc1ccccc1)NC(=O)OCc1ccccc1`, the IC50 on Cathepsin K was 2300 nM; on Procathepsin L, 91 nM; at Cathepsin B, 6.46 µM; at Neutrophil elastase, over 50 µM; on Cathepsin S, over 2500 nM.
Regarding `O=C(N[C@@H](Cc1ccccc1)C(=O)N[C@@H]1C(=O)N[C@@H]1Sc1ccccc1)OCc1ccccc1`, the IC50 on Cathepsin K was 72 nM; at Procathepsin L, 15 nM; on Cathepsin B, 39.7 µM; on Neutrophil elastase, over 50 µM; at Cathepsin S it was 2500 nM.
The corresponding values for `O=C(N[C@@H](Cc1ccccc1)C(=O)N[C@@H]1C(=O)N[C@H]1Sc1ccccc1)OCc1ccccc1` are 8.4 nM, 0.1 nM, 10.5 µM, over 50 µM and 330 nM.
In the case of `CC(=O)O[C@@H]1NC(=O)[C@H]1NC(=O)[C@H](Cc1ccccc1)NC(=O)OCc1ccccc1`, the IC50 was 100 nM at Cathepsin K; 42 nM at Procathepsin L; 0.47 µM on Cathepsin B; over 10 µM against Neutrophil elastase; 207 nM at Cathepsin S.
Turning to `O=C(N[C@@H](Cc1ccccc1)C(=O)N[C@@H]1C(=O)N[C@@H]1Oc1ccccc1)OCc1ccccc1`, the values for the IC50 on Cathepsin K, at Cathepsin B and on Neutrophil elastase were 16 nM, 0.43 µM and over 30 µM, respectively.
As to `O=C(N[C@@H](Cc1ccccc1)C(=O)N[C@@H]1C(=O)N[C@H]1Oc1ccccc1)OCc1ccccc1`, the IC50 at Cathepsin K is 100 nM; at Cathepsin B, 10.9 µM; against Neutrophil elastase it was over 30 µM; at Cathepsin S, 330 nM.
With `O=C(N[C@@H](Cc1ccccc1)C(=O)N[C@@H]1C(=O)N[C@H]1S(=O)(=O)c1ccccc1)OCc1ccccc1`, the IC50 at Cathepsin K was 6.5 nM; on Procathepsin L it was 0.1 nM; against Neutrophil elastase it was over 50 µM; on Cathepsin S it was 48 nM.
For `O=C(N[C@@H](Cc1ccccc1)C(=O)N[C@@H]1C(=O)N[C@H]1OCc1ccccc1)OCc1ccccc1`, the IC50 was 2500 nM at Cathepsin K; 3960 nM at Procathepsin L; 32.6 µM at Cathepsin B; over 50 µM on Neutrophil elastase; over 2500 nM at Cathepsin S.
Regarding `CCCCO[C@@H]1NC(=O)[C@H]1NC(=O)[C@H](Cc1ccccc1)NC(=O)OCc1ccccc1`, the IC50 was 100 nM on Cathepsin K; 163 nM on Procathepsin L; 7.01 µM on Cathepsin B; over 50 µM on Neutrophil elastase; 355 nM on Cathepsin S.
